According to ChEMBL document CHEMBL3885861, “Open TG-GATES”:

Organism: Rattus norvegicus
Assay: Open TG-GATES - Regimen: Single
Assay type: toxicity, organism-based, Sprague-Dawley
Parameters: regimen Single, gender Male, age 6 weeks
Details: in vivo, po, route gavage; for APTT / Bas / Eos / Fbg / Hb / Ht / Lym / MCH / MCHC / MCV / Mono / Neu / PT / Plat / Ret / WBC: tissue Blood; for KIDNEY_L / KIDNEY_R / KIDNEY_TOTAL: tissue Kidney; for LIVER: tissue Liver; for ALP / ALT / AST / BUN / CRE / Ca / DBIL / GLC / IP / K / LDH / Na / PL / RALB / TBIL / TC / TG / TP / gamma-GTP: tissue Plasma

With `CN(C)CCCN1c2ccccc2CCc2ccc(Cl)cc21` [CLOMIPRAMINE] the APTT (10 mg/kg, 3 h, dose level Low) was 17.9 s, the Bas (10 mg/kg, 3 h, dose level Low) was 0.4% and the Eos (10 mg/kg, 3 h, dose level Low) was 1%. It also gave a Fbg (10 mg/kg, 3 h, dose level Low) of 240 mg/dL, a Hb (10 mg/kg, 3 h, dose level Low) of 14 g/dL and a Ht (10 mg/kg, 3 h, dose level Low) of 43.3%. For the same compound, the Lym (10 mg/kg, 3 h, dose level Low) was 81%, the MCH (10 mg/kg, 3 h, dose level Low) was 20.7 pg and the MCHC (10 mg/kg, 3 h, dose level Low) was 32.4%. For the same compound, the MCV (10 mg/kg, 3 h, dose level Low) was 63.9 fL, the Mono (10 mg/kg, 3 h, dose level Low) was 3.4% and the Neu (10 mg/kg, 3 h, dose level Low) was 13.8%. It also gave a PT (10 mg/kg, 3 h, dose level Low) of 13.5 s, a Plat (10 mg/kg, 3 h, dose level Low) of 129 x10_4/uL and a Ret (10 mg/kg, 3 h, dose level Low) of 7.8%. The WBC (10 mg/kg, 3 h, dose level Low) was 74.4 x10_2/uL, the KIDNEY_L (10 mg/kg, 3 h, dose level Low) was 1 g and the KIDNEY_R (10 mg/kg, 3 h, dose level Low) was 1 g. The KIDNEY_TOTAL (10 mg/kg, 3 h, dose level Low) was 1.9 g, the LIVER (10 mg/kg, 3 h, dose level Low) was 10 g and the ALP (10 mg/kg, 3 h, dose level Low) was 1810.4 IU/L. It also gave an ALT (10 mg/kg, 3 h, dose level Low) of 41.2 IU/L, an AST (10 mg/kg, 3 h, dose level Low) of 75.8 IU/L and a BUN (10 mg/kg, 3 h, dose level Low) of 9.8 mg/dL. For the same compound, the CRE (10 mg/kg, 3 h, dose level Low) was 0.2 mg/dL, the Ca (10 mg/kg, 3 h, dose level Low) was 10.7 mg/dL and the DBIL (10 mg/kg, 3 h, dose level Low) was 0.01 mg/dL. For the same compound, the GLC (10 mg/kg, 3 h, dose level Low) was 189 mg/dL, the IP (10 mg/kg, 3 h, dose level Low) was 9 mg/dL and the K (10 mg/kg, 3 h, dose level Low) was 4.3 meq/L. For the same compound, the LDH (10 mg/kg, 3 h, dose level Low) was 123 IU/L, the Na (10 mg/kg, 3 h, dose level Low) was 140.6 meq/L and the PL (10 mg/kg, 3 h, dose level Low) was 148.6 mg/dL. For the same compound, the RALB (10 mg/kg, 3 h, dose level Low) was 2.5 g/dL, the TBIL (10 mg/kg, 3 h, dose level Low) was 0.074 mg/dL and the TC (10 mg/kg, 3 h, dose level Low) was 76.2 mg/dL. For the same compound, the TG (10 mg/kg, 3 h, dose level Low) was 78 mg/dL, the TP (10 mg/kg, 3 h, dose level Low) was 5.2 g/dL and the gamma-GTP (10 mg/kg, 3 h, dose level Low) was 1.2 IU/L. It also gave a TERMINAL_BW (10 mg/kg, 6 h, dose level Low) of 215.1 g, an APTT (10 mg/kg, 6 h, dose level Low) of 17 s and a Bas (10 mg/kg, 6 h, dose level Low) of 0%. The Eos (10 mg/kg, 6 h, dose level Low) was 0.4%, the Fbg (10 mg/kg, 6 h, dose level Low) was 254.8 mg/dL and the Hb (10 mg/kg, 6 h, dose level Low) was 14 g/dL. The Ht (10 mg/kg, 6 h, dose level Low) was 43.7%, the Lym (10 mg/kg, 6 h, dose level Low) was 79.6% and the MCH (10 mg/kg, 6 h, dose level Low) was 21 pg. The MCHC (10 mg/kg, 6 h, dose level Low) was 32.1%, the MCV (10 mg/kg, 6 h, dose level Low) was 65.5 fL and the Mono (10 mg/kg, 6 h, dose level Low) was 3%. It also gave a Neu (10 mg/kg, 6 h, dose level Low) of 15.6%, a PT (10 mg/kg, 6 h, dose level Low) of 13.6 s and a Plat (10 mg/kg, 6 h, dose level Low) of 119.7 x10_4/uL. It also gave a Ret (10 mg/kg, 6 h, dose level Low) of 7.9%, a WBC (10 mg/kg, 6 h, dose level Low) of 81.1 x10_2/uL and a KIDNEY_L (10 mg/kg, 6 h, dose level Low) of 1 g. It also gave a KIDNEY_R (10 mg/kg, 6 h, dose level Low) of 1 g, a KIDNEY_TOTAL (10 mg/kg, 6 h, dose level Low) of 2 g and an LIVER (10 mg/kg, 6 h, dose level Low) of 9.3 g. It also gave an ALP (10 mg/kg, 6 h, dose level Low) of 1661 IU/L, an ALT (10 mg/kg, 6 h, dose level Low) of 39.4 IU/L and an AST (10 mg/kg, 6 h, dose level Low) of 78.4 IU/L. The BUN (10 mg/kg, 6 h, dose level Low) was 9.4 mg/dL, the CRE (10 mg/kg, 6 h, dose level Low) was 0.2 mg/dL and the Ca (10 mg/kg, 6 h, dose level Low) was 10.8 mg/dL. For the same compound, the DBIL (10 mg/kg, 6 h, dose level Low) was 0.01 mg/dL, the GLC (10 mg/kg, 6 h, dose level Low) was 189.8 mg/dL and the IP (10 mg/kg, 6 h, dose level Low) was 9.4 mg/dL. The K (10 mg/kg, 6 h, dose level Low) was 4.2 meq/L, the LDH (10 mg/kg, 6 h, dose level Low) was 93 IU/L and the Na (10 mg/kg, 6 h, dose level Low) was 140.8 meq/L. The PL (10 mg/kg, 6 h, dose level Low) was 149 mg/dL, the RALB (10 mg/kg, 6 h, dose level Low) was 2.5 g/dL and the TBIL (10 mg/kg, 6 h, dose level Low) was 0.072 mg/dL. The TC (10 mg/kg, 6 h, dose level Low) was 83.4 mg/dL, the TG (10 mg/kg, 6 h, dose level Low) was 52.2 mg/dL and the TP (10 mg/kg, 6 h, dose level Low) was 5.3 g/dL. It also gave a gamma-GTP (10 mg/kg, 6 h, dose level Low) of 1.4 IU/L, a TERMINAL_BW (10 mg/kg, 9 h, dose level Low) of 213 g and an APTT (10 mg/kg, 9 h, dose level Low) of 15.9 s. For the same compound, the Bas (10 mg/kg, 9 h, dose level Low) was 0%, the Eos (10 mg/kg, 9 h, dose level Low) was 0.6% and the Fbg (10 mg/kg, 9 h, dose level Low) was 267.6 mg/dL. For the same compound, the Hb (10 mg/kg, 9 h, dose level Low) was 13.5 g/dL, the Ht (10 mg/kg, 9 h, dose level Low) was 41.8% and the Lym (10 mg/kg, 9 h, dose level Low) was 78.8%. The MCH (10 mg/kg, 9 h, dose level Low) was 20.9 pg, the MCHC (10 mg/kg, 9 h, dose level Low) was 32.2% and the MCV (10 mg/kg, 9 h, dose level Low) was 64.8 fL. It also gave a Mono (10 mg/kg, 9 h, dose level Low) of 2.2%, a Neu (10 mg/kg, 9 h, dose level Low) of 17.4% and a PT (10 mg/kg, 9 h, dose level Low) of 14.1 s. It also gave a Plat (10 mg/kg, 9 h, dose level Low) of 130.4 x10_4/uL, a Ret (10 mg/kg, 9 h, dose level Low) of 8.4% and a WBC (10 mg/kg, 9 h, dose level Low) of 80 x10_2/uL. For the same compound, the KIDNEY_L (10 mg/kg, 9 h, dose level Low) was 1 g, the KIDNEY_R (10 mg/kg, 9 h, dose level Low) was 0.9 g and the KIDNEY_TOTAL (10 mg/kg, 9 h, dose level Low) was 1.9 g. For the same compound, the LIVER (10 mg/kg, 9 h, dose level Low) was 9 g, the ALP (10 mg/kg, 9 h, dose level Low) was 1512 IU/L and the ALT (10 mg/kg, 9 h, dose level Low) was 35.8 IU/L. It also gave an AST (10 mg/kg, 9 h, dose level Low) of 67.8 IU/L, a BUN (10 mg/kg, 9 h, dose level Low) of 10.4 mg/dL and a CRE (10 mg/kg, 9 h, dose level Low) of 0.2 mg/dL. It also gave a Ca (10 mg/kg, 9 h, dose level Low) of 10.7 mg/dL, a DBIL (10 mg/kg, 9 h, dose level Low) of 0.01 mg/dL and a GLC (10 mg/kg, 9 h, dose level Low) of 187.8 mg/dL. The IP (10 mg/kg, 9 h, dose level Low) was 10.2 mg/dL, the K (10 mg/kg, 9 h, dose level Low) was 4 meq/L and the LDH (10 mg/kg, 9 h, dose level Low) was 84.2 IU/L. For the same compound, the Na (10 mg/kg, 9 h, dose level Low) was 140.2 meq/L, the PL (10 mg/kg, 9 h, dose level Low) was 138.2 mg/dL and the RALB (10 mg/kg, 9 h, dose level Low) was 2.5 g/dL. It also gave a TBIL (10 mg/kg, 9 h, dose level Low) of 0.064 mg/dL, a TC (10 mg/kg, 9 h, dose level Low) of 75.2 mg/dL and a TG (10 mg/kg, 9 h, dose level Low) of 74 mg/dL. It also gave a TP (10 mg/kg, 9 h, dose level Low) of 5.3 g/dL, a gamma-GTP (10 mg/kg, 9 h, dose level Low) of 1.4 IU/L and a TERMINAL_BW (10 mg/kg, 24 h, dose level Low) of 228.6 g. The APTT (10 mg/kg, 24 h, dose level Low) was 17.7 s, the Bas (10 mg/kg, 24 h, dose level Low) was 0% and the Eos (10 mg/kg, 24 h, dose level Low) was 1%. It also gave a Fbg (10 mg/kg, 24 h, dose level Low) of 249 mg/dL, a Hb (10 mg/kg, 24 h, dose level Low) of 13.6 g/dL and a Ht (10 mg/kg, 24 h, dose level Low) of 42.5%. The Lym (10 mg/kg, 24 h, dose level Low) was 77%, the MCH (10 mg/kg, 24 h, dose level Low) was 20.8 pg and the MCHC (10 mg/kg, 24 h, dose level Low) was 32.1%. The MCV (10 mg/kg, 24 h, dose level Low) was 65 fL, the Mono (10 mg/kg, 24 h, dose level Low) was 3% and the Neu (10 mg/kg, 24 h, dose level Low) was 17.6%. For the same compound, the PT (10 mg/kg, 24 h, dose level Low) was 13.7 s, the Plat (10 mg/kg, 24 h, dose level Low) was 124 x10_4/uL and the Ret (10 mg/kg, 24 h, dose level Low) was 7.7%. The WBC (10 mg/kg, 24 h, dose level Low) was 85.9 x10_2/uL, the KIDNEY_L (10 mg/kg, 24 h, dose level Low) was 1.1 g and the KIDNEY_R (10 mg/kg, 24 h, dose level Low) was 1 g. It also gave a KIDNEY_TOTAL (10 mg/kg, 24 h, dose level Low) of 2.1 g, an ALP (10 mg/kg, 24 h, dose level Low) of 1661.4 IU/L and an ALT (10 mg/kg, 24 h, dose level Low) of 42.6 IU/L. The AST (10 mg/kg, 24 h, dose level Low) was 74.4 IU/L, the BUN (10 mg/kg, 24 h, dose level Low) was 13 mg/dL and the CRE (10 mg/kg, 24 h, dose level Low) was 0.2 mg/dL. The Ca (10 mg/kg, 24 h, dose level Low) was 10.8 mg/dL, the DBIL (10 mg/kg, 24 h, dose level Low) was 0.012 mg/dL and the GLC (10 mg/kg, 24 h, dose level Low) was 179.8 mg/dL. It also gave an IP (10 mg/kg, 24 h, dose level Low) of 8.1 mg/dL, a K (10 mg/kg, 24 h, dose level Low) of 4 meq/L and an LDH (10 mg/kg, 24 h, dose level Low) of 88 IU/L. The Na (10 mg/kg, 24 h, dose level Low) was 141.8 meq/L, the PL (10 mg/kg, 24 h, dose level Low) was 144.4 mg/dL and the RALB (10 mg/kg, 24 h, dose level Low) was 2.6 g/dL. The TBIL (10 mg/kg, 24 h, dose level Low) was 0.062 mg/dL, the TC (10 mg/kg, 24 h, dose level Low) was 73.8 mg/dL and the TG (10 mg/kg, 24 h, dose level Low) was 91.6 mg/dL. It also gave a TP (10 mg/kg, 24 h, dose level Low) of 5.4 g/dL, a gamma-GTP (10 mg/kg, 24 h, dose level Low) of 1 IU/L and a TERMINAL_BW (30 mg/kg, 3 h, dose level Middle) of 217.9 g.
